What all share (assay): Bliss excess, mean over the matrix (fraction); higher = more synergy
The subject of assay [1] is TYK-nu (Ovarian Carcinoma). A digest of the protocol: (§1)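 After 24 hours at 37°C and 5% CO2 in 1536-well plates, cells in DMEM/F12 or RPMI plus 10% FBS received two-drug dose matrices for 72 hours. Viability came from CellTiter-Glo 2.0 luminescence and was scaled as inhibition, anchored at 0 by vehicle wells and at 1 by blank wells. Combination Emax is taken as the second-highest inhibition in the matrix, and Bliss excess as the observed combination effect less EA + EB − EA·EB, with EA and EB the single-agent effects.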

Assay [2] has as its system SKN-3 (Head and Neck Carcinoma). A digest of the protocol: as §1
The subject of assay [3] is SLVL (B-Cell Non-Hodgkin's Lymphoma). Summed up:
as §1

Assay [4] concerns SW948 (Colorectal Carcinoma). A digest of the protocol:
as §1

Assay [5] relates to 647-V (Bladder Carcinoma). Summed up: as §1
Another assay deals with H4 (Low Grade Glioma). Summed up:
as §1

The test system of assay [6] is EFM-192A (Breast Carcinoma). A digest of the protocol:
as §1

For a further assay, the system named is MSTO-211H (Mesothelioma). Summed up: as §1
Assay [7] relates to WSU-DLCL2 (B-Cell Non-Hodgkin's Lymphoma). Summed up:
as §1

The test system of the next assay is A172 (Glioblastoma). A digest of the protocol: as §1
Assay [8] deals with KG-1 (Acute Myeloid Leukemia). Summed up:
as §1

A further assay relates to D-392MG (Glioblastoma). Summed up:
as §1

In assay [9] the test system is SW48 (Colorectal Carcinoma). A digest of the protocol: as §1
Assay [10] deals with YT (Other Blood Carcinomas). Summed up: as §1
The test system of assay [11] is SNU-61 (Colorectal Carcinoma). Summed up: as §1
A further assay relates to HuO9 (Osteosarcoma). Summed up:
as §1

Assay [12] has as its system PA-TU-8902 (Pancreatic Carcinoma). Summed up:
as §1

In another assay the test system is EW-22 (Ewing's Sarcoma). Summed up:
as §1

In assay [13] the test system is U-118-MG (Low Grade Glioma). A digest of the protocol:
as §1

Assay [14] concerns NOMO-1 (Acute Myeloid Leukemia). Summed up:
as §1

Take `Cn1cnc2c(F)c(Nc3ccc(Br)cc3Cl)c(C(=O)NOCCO)cc21` [Selumetinib] + C[C@@H]1COCCN1C2=NC(=NC(=C2)C3(CC3)[S@](=N)(=O)C)C4=C5C=CNC5=NC=C4 [AZD6738] (first compound max 10 µM, 7x7, partner max 10 µM): the Bliss excess is 0.089 in assay [1]; 0.0257 in assay [2]; -0.107 in assay [3]; -0.0114 in assay [4]; 0.0218 in [5]; -0.0067 in the assay with H4 (Low Grade Glioma). In addition, the Bliss excess in assay [6] is -0.0365; with MSTO-211H (Mesothelioma), -0.0453; in [7], -0.0228; in the assay with A172 (Glioblastoma), -0.0564; in assay [8] it was 0.0218; in the assay with D-392MG (Glioblastoma), 0.0013. The Bliss excess in assay [9] is -0.017; in [10], -0.064; in assay [11] it was 0.065; with HuO9 (Osteosarcoma) it was 0.0042; in [12], 0.0428; with EW-22 (Ewing's Sarcoma) it was -0.028. In addition, the Bliss excess in assay [13] is 0.0263; in assay [14] it was -0.0299.
For the compound `COc1cccc(OCCCN)c1-c1cc(Nc2cnc(C#N)cn2)n[nH]1` [Prexasertib] + CCc1c2c(nc3ccc(O)cc13)-c1cc3c(c(=O)n1C2)COC(=O)[C@]3(O)CC [SN-38] (first compound max 1 µM, 7x7, partner max 0.3 µM), the Bliss excess in assay [1] was -0.0899; in assay [2] it was 0.0703; in assay [3] it was -0.0258; in assay [4] it was 0.151; in assay [5], 0.0129; in the assay with H4 (Low Grade Glioma), -0.0544. Further, the Bliss excess in assay [6] is 0.0304; in the assay with MSTO-211H (Mesothelioma), -0.0857; in assay [7], -0.006; in the assay with A172 (Glioblastoma) it was -0.0322; in [8], -0.0454; with D-392MG (Glioblastoma) it was -0.11. Moreover, the Bliss excess is -0.0333 in [9]; -0.0527 in assay [10]; 0.0163 in assay [11]; -0.0301 in the assay on HuO9 (Osteosarcoma); 0.049 in [12]; -0.0916 with EW-22 (Ewing's Sarcoma). The results for the Bliss excess in assay [13] and in [14] were -0.0193 and -0.0319, respectively.
For the compound `NC1(C(=O)N[C@@H](CCO)c2ccc(Cl)cc2)CCN(c2ncnc3[nH]ccc23)CC1` [Capivasertib] + Cn1cnc2c(F)c(Nc3ccc(Br)cc3Cl)c(C(=O)NOCCO)cc21 [Selumetinib] (first compound max 10 µM, 7x7, partner max 10 µM), the Bliss excess was 0.0219 in assay [1]; -0.0759 in assay [2]; -0.0251 in assay [3]; -0.0554 in assay [4]; -0.0134 in assay [5]; -0.0307 with H4 (Low Grade Glioma). Besides, the Bliss excess in [6] is -0.0326; in the assay with MSTO-211H (Mesothelioma), 0.0663; in assay [7], -0.0006; in the assay on A172 (Glioblastoma), -0.008; in assay [8] it was -0.0045; in the assay with D-392MG (Glioblastoma) it was -0.0202. Moreover, the Bliss excess in assay [9] was -0.0453; in assay [10], -0.0041; in [11] it was 0.025; in the assay with HuO9 (Osteosarcoma) it was -0.0116; in assay [12], 0.0181; in the assay on EW-22 (Ewing's Sarcoma), -0.0255. Also, the results for the Bliss excess in assay [13] and in [14] were 0.0071 and 0.0099, respectively.
For `Cc1cc2ncnn2cc1Nc1ncc2c(n1)n(C1CCOCC1)c(=O)n2C` [AZD7648] + CN(C)CCCOc1ccc(-c2ccc3ncc4c(c3c2)n(C2CCOCC2)c(=O)n4C)cn1 [AZD0156] (first compound max 10 µM, 7x7, partner max 1 µM), the Bliss excess in [1] was -0.0465; in assay [2], -0.0064; in [3], -0.0164; in [4], 0.0122; in [5], 0.0401; in the assay with H4 (Low Grade Glioma), -0.0253. Also, the Bliss excess in assay [6] is -0.0119; in the assay on MSTO-211H (Mesothelioma), 0.0388; in assay [7], 0.0127; in the assay with A172 (Glioblastoma), -0.034; in assay [8] it was -0.0155; with D-392MG (Glioblastoma), -0.0405. In addition, the Bliss excess was -0.0183 in assay [9]; -0.0389 in [10]; -0.0151 in assay [11]; 0.0522 in the assay on HuO9 (Osteosarcoma); -0.0013 in [12]; 0.0335 in the assay on EW-22 (Ewing's Sarcoma). In addition, the Bliss excess in assay [13] is -0.0217; in assay [14], 0.0371.
For the compound `COc1nnc2ccc(N3CCC(c4ccc(OCCN5CCN(C)C(=O)[C@H]5C)cc4)CC3)nn12` [AZD5153] + CCN(CCO)CCCOc1ccc2c(Nc3cc(CC(=O)Nc4cccc(F)c4)[nH]n3)ncnc2c1 [AZD2811] (first compound max 1 µM, 7x7, partner max 1 µM), the Bliss excess in [1] is -0.0658; in [2], -0.0436; in [3], -0.151; in assay [4] it was -0.102; in [5], 0.0236; in the assay with H4 (Low Grade Glioma) it was -0.0269. Besides, the Bliss excess in assay [6] was -0.0154; in the assay on MSTO-211H (Mesothelioma), -0.0182; in assay [7], -0.019; in the assay on A172 (Glioblastoma) it was -0.0466; in assay [8], 0.0074; in the assay with D-392MG (Glioblastoma), -0.037. Further, the Bliss excess in assay [9] is -0.0821; in [10], -0.0579; in assay [11], -0.0074; with HuO9 (Osteosarcoma) it was -0.0983; in assay [12], -0.0246; with EW-22 (Ewing's Sarcoma), -0.0779. In addition, the figures for the Bliss excess in [13] and in assay [14] were -0.0317 and -0.0225, respectively.
With `CN(CCO)CC[C@H](CSc1ccccc1)Nc1ccc(S(=O)(=O)NC(=O)c2ccc(N3CCC([C@@H](O)c4ccccc4-c4ccc(Cl)cc4)CC3)cc2)cc1S(=O)(=O)C(F)(F)F` [AZD4320] + C[C@@H]1COCCN1C2=NC(=NC(=C2)C3(CC3)[S@](=N)(=O)C)C4=C5C=CNC5=NC=C4 [AZD6738] (first compound max 1 µM, 7x7, partner max 10 µM), the Bliss excess is -0.0115 in [1]; -0.0127 in assay [2]; 0.0156 in [3]; -0.0873 in [4]; -0.0222 in assay [5]; -0.0249 in the assay on H4 (Low Grade Glioma). The Bliss excess in assay [6] is -0.0226; with MSTO-211H (Mesothelioma), 0.0002; in assay [7], 0.0329; in the assay on A172 (Glioblastoma) it was -0.0748; in assay [8], 0.0279; with D-392MG (Glioblastoma), -0.0094. In addition, the Bliss excess is 0.0245 in [9]; -0.0251 in assay [10]; -0.0406 in assay [11]; -0.0242 in the assay with HuO9 (Osteosarcoma); -0.0378 in assay [12]; 0.0762 in the assay on EW-22 (Ewing's Sarcoma). The Bliss excess was -0.0285 in assay [13] and 0.0303 in assay [14].

These data come from the supplement of paper PMC11061612.
